Source: patent US11191732B2, “Glutaminase inhibitor discovery and nanoparticle-enhanced delivery for cancer therapy” (The Johns Hopkins University, priority 2014, dated 2021)
One block for each compound: values may come before it.

How the values were obtained:
Panc265 tumor = assay: Panc265 patient-derived orthotopic pancreatic cancer xenograft tumor growth; format: in vivo; conditions: BPTES nanoparticles 1.2 mg every 3 days IV; gemcitabine 625 μg twice per week IP; 4 weeks
[1] = tested on: resected pancreatic cancer; conditions: six cycles adjuvant, cited from earlier work
[2] = tested on: resected pancreatic cancer; conditions: 6 months adjuvant treatment after complete macroscopic resection; cited from earlier work
GLS = GLS (Homo sapiens (Human), UniProt O94925); assay: Inhibition of GLS (established radioactive assay); format: biochemical
GLS, sequence (O94925 73-669): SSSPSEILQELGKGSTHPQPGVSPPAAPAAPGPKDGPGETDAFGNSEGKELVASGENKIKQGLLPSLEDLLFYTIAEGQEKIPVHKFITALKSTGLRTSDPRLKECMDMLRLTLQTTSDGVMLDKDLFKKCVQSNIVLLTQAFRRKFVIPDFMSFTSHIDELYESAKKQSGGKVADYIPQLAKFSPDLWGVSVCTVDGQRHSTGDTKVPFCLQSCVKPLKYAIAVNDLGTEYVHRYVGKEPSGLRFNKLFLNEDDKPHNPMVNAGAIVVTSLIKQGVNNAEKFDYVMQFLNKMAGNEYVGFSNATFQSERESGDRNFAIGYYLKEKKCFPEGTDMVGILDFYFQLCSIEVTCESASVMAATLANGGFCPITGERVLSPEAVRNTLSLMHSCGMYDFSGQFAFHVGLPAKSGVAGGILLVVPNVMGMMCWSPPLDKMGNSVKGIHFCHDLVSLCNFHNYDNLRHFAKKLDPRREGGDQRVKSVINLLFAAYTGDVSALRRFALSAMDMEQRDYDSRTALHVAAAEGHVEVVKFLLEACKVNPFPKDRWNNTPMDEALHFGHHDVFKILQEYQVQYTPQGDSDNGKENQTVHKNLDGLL
Description: All new synthetic compounds can be tested for their ability to inhibit GLS using an already established radioactive assay.

[3] = tested on: KRAS-mutant human pancreatic cancer cells; assay: Growth of glutamine-addicted pancreatic cancer cells with BPTES; format: cell-based; conditions: full DMEM media, BPTES dissolved in DMSO
Description: Cells were grown at 37° C. in a 5% (v/v) CO2 and 95% (v/v) air incubator in full DMEM media.

[4] = tested on: glutamine-dependent JHU094 pancreatic patient tumor; assay: JHU094 pancreatic patient tumor growth in vivo; set-up: species or system mice; conditions: nanoparticle 1.2 mg vs free 0.3125 mg in 100 μl, IV
Description: (§1) DMSO solution per dose, as this was is the highest dose that could be administered based on solubility and injection volume limitations.

[5] = BPTES levels in pancreatic tumors after intravenous administration (LC-MS/MS); format: in vivo, mice; conditions: all time points, limit of detection 10 nM
Description: BPTES levels were quantified by LC-MS/MS.
as §1

Metabolic stability = format: in vitro ADME; conditions: oxidation of the sulfide moiety
Description: In compound 4, the terminal aminothiadiazole ring was replaced with a secondary amide, presenting a new scaffold for GLS inhibitors.

Structure (SMILES): Nc1ccn([C@@H]2O[C@H](CO)[C@@H](O)C2(F)F)c(=O)n1 [gemcitabine]
- reduction in tumor growth (Panc265 tumor): 40-50%
- survival rate at 10 years ([1]; observation-alone arm 7.7%): 12.2%
- survival rate at 5 years ([1]; observation-alone arm 10.4%): 20.7%
- Median OS [2]: 23.6 months

- IC50 (GLS): 100 nM
Structure (SMILES): O=C(O)CCCCC(=O)Nc1nnc(CCCCc2nnc(NC(=O)Cc3ccccc3)s2)s1 [Compound 6]

- BPTES level in tumor [5]: < 10 nM
Structure (SMILES): O=C(Cc1ccccc1)Nc1nnc(CCSCCc2nnc(NC(=O)Cc3ccccc3)s2)s1 [BPTES, bis-2-[5-(phenylacetamido)-1,3,4-thiadiazol-2-yl]ethyl sulfide]
- effect on growth of glutamine-addicted pancreatic cancers [3]: inhibitory to their growth
- effect on tumor growth [4]: no statistical benefit

- IC50 (GLS): 100 nM
Structure (SMILES): O=C(O)CCCCCC(=O)Nc1nnc(CCCCc2nnc(NC(=O)Cc3ccccc3)s2)s1 [Compound 7]

Structure (SMILES): Nc1nnc(CCCCc2nnc(NC(=O)Cc3ccccc3)s2)s1 [Compound 3]
- IC50 (GLS): 1900 nM

Structure (SMILES): O=C(CCCCc1nnc(NC(=O)Cc2ccccc2)s1)NCCN1CCCC1 [Compound 4]
- IC50 (GLS): 4600 nM

- IC50 (GLS): 80 nM
Structure (SMILES): O=C(Cc1ccccc1)Nc1nnc(CCCCc2nnc(NC(=O)Cc3ccc(O)cc3)s2)s1 [Compound 5]

Structure (SMILES): Nc1nnc(CCSCCc2nnc(N)s2)s1 [Compound 2]
- IC50 (GLS): 100000 nM
- metabolic stability (Metabolic stability): metabolically unstable
